Holding throughout (assay type): functional
Common to all, as to conditions: route intraperitoneal

In test [1] the test system is Mus musculus. The test is described as follows: Anticonvulsant activity in Mus musculus albino (mouse) assessed as protection against maximal electroshock-induced seizures at 30 mg/kg, ip administered 30 min prior to electro shock-challenge measured for 2 min relative to phenytoin.
Test [2] deals with Mus musculus. The test is described as follows: Anticonvulsant activity in Mus musculus albino (mouse) assessed as protection against maximal electroshock-induced seizures at 30 mg/kg, ip administered 30 min prior to electro shock-challenge measured for 2 min relative to control. (In general: In the maximal electroshock model the usual endpoint is tonic extension of the hind limbs.)

For test [3], the system named is Mus musculus. Briefly: Anticonvulsant activity in Mus musculus albino (mouse) assessed as protection against maximal electroshock-induced seizures at 25 mg/kg, ip administered 30 min prior to electro shock-challenge measured for 2 min relative to control.

The values below come from ChEMBL document CHEMBL3046022, “Synthesis and pharmacological screening of some novel chalconyl derivatives of substituted phenyl semicarbazide” (2011).

SMILES strings stand for the structures.

Turning to `O=C(N/N=C(\C=C\c1ccccc1O)c1ccccc1O)Nc1ccc(Br)cc1`, the Activity is on record as 81.06% in the test with Mus musculus [1] and 64.81% in the test with Mus musculus [2]. With `O=C(N/N=C(\C=C\c1ccccc1O)c1ccc(O)cc1O)Nc1ccc(F)cc1`, the figures for the Activity in the test on Mus musculus [1] and in the test on Mus musculus [2] were 92.62% and 74.05%, respectively. The like results for `COc1ccc(/C=C/C(=N\NC(=O)Nc2ccc(Br)cc2)c2cc(O)ccc2O)cc1` were, in that order, 49.71% and 39.75%. With `O=C(N/N=C(\C=C\c1ccc(O)cc1)c1cc(O)ccc1O)Nc1ccc(Br)cc1`, the Activity with Mus musculus [1] worked out at 95.82%; in the test on Mus musculus [2] it was 76.61%. The like results for `CN(C)c1ccc(/C=C/C(=N\NC(=O)Nc2ccc(Br)cc2)c2ccc(O)cc2O)cc1` were, in that order, 30.35% and 24.27%. `COc1ccc(/C=C/C(=N\NC(=O)Nc2ccc(Br)cc2)c2ccccc2O)cc1`: the Activity amounted to 64.34% with Mus musculus [1] and 51.44% in the test on Mus musculus [2]. For the compound `CN(C)c1ccc(/C=C/C(=N\NC(=O)Nc2ccc(F)cc2)c2ccc(O)cc2O)cc1`, the Activity in the test on Mus musculus [1] came out at 37.04%; in the test on Mus musculus [2], 29.62%.

Regarding `O=C(N/N=C(\C=C\c1ccccc1)c1ccccc1O)Nc1ccc(Br)cc1`, the Activity is reported as 28.26% in the test on Mus musculus [1] and 22.6% with Mus musculus [2]. For the compound `O=C1NC(=O)C(c2ccccc2)(c2ccccc2)N1` [PHENYTOIN], the Activity in the test on Mus musculus [3] was 79.95%.

For `O=C(N/N=C(\C=C\c1ccccc1)c1ccccc1O)Nc1ccc(F)cc1`, the Activity came out at 28.96% in the test with Mus musculus [1] and 23.16% with Mus musculus [2]. For `CN(C)c1ccc(/C=C/C(=N\NC(=O)Nc2ccc(Br)cc2)c2ccccc2O)cc1`, the Activity in the test with Mus musculus [1] stood at 38.71%; in the test on Mus musculus [2], 30.95%.

For the compound `O=C(N/N=C(\C=C\c1ccccc1O)c1cc(O)ccc1O)Nc1ccc(Br)cc1`, the Activity is 94% in the test with Mus musculus [1] and 75.16% with Mus musculus [2]. The like results for `O=C(N/N=C(\C=C\c1ccc(O)cc1)c1cc(O)ccc1O)Nc1ccc(F)cc1` were, in that order, 99.72% and 79.73%. In the same order, the values of `CN(C)c1ccc(/C=C/C(=N\NC(=O)Nc2ccc(F)cc2)c2ccccc2O)cc1` are 45.26% and 36.19%.

With `O=C(N/N=C(\C=C\c1ccc(O)cc1)c1ccccc1O)Nc1ccc(Br)cc1`, the Activity was 84.95% in the test with Mus musculus [1] and 67.92% in the test with Mus musculus [2]. Consider `COc1ccc(/C=C/C(=N\NC(=O)Nc2ccc(F)cc2)c2cc(O)ccc2O)cc1`, for which the Activity in the test on Mus musculus [1] was 56.54%; with Mus musculus [2], 45.21%. In the same order, the values of `O=C(N/N=C(\C=C\c1ccccc1O)c1ccccc1O)Nc1ccc(F)cc1` are 83.56% and 66.81%.

For the compound `O=C(N/N=C(\C=C\c1ccccc1O)c1ccc(O)cc1O)Nc1ccc(Br)cc1`, the Activity with Mus musculus [1] was 91.21%; in the test with Mus musculus [2], 72.93%.

In the case of `O=C(N/N=C(\C=C\c1ccc(O)cc1)c1ccccc1O)Nc1ccc(F)cc1`, the Activity with Mus musculus [1] amounted to 87.74%; with Mus musculus [2], 70.15%. The like results for `O=C(N/N=C(\C=C\c1ccccc1O)c1cc(O)ccc1O)Nc1ccc(F)cc1` were, in that order, 94.98% and 75.94%.

As to `COc1ccc(/C=C/C(=N\NC(=O)Nc2ccc(F)cc2)c2ccccc2O)cc1`, the Activity in the test with Mus musculus [1] is 66.42%; with Mus musculus [2] it was 53.11%.
